Measured values taken from patent US20250228831A1, “METHOD TO PREVENT AND TREAT GLAUCOMA BY CALCIUM CHANNEL BLOCKERS, ANGIOTENSIN CONVERTING ENZYME INHIBITORS, AND ANGIOTENSIN RECEPTOR BLOCKERS” (priority 2022, published 2025).

How the values were obtained:
Type in all cases: in vivo, human
glaucoma [1] = test: Treatment of a patient diagnosed with glaucoma, one eye treated and the other left untreated
Text: (§1) A patient is diagnosed with glaucoma.
A patient is diagnosed with glaucoma. A composition comprising the ACE inhibitor enalapril is directly applied to the vitreous surface of one eye while the other eye is left untreated.
A patient is diagnosed with glaucoma. A composition comprising the angiotensin receptor blocker losartan is directly applied to the vitreous surface of one eye while the other eye is left untreated.
as §1
A patient is diagnosed with glaucoma. A composition comprising the ACE inhibitor enalapril is applied to the eye by intravitreal or intraocular injection while the other eye is left untreated.
A patient is diagnosed with glaucoma. A composition comprising the angiotensin receptor blocker losartan is applied to the eye by intravitreal or intraocular injection while the other eye is left untreated.

glaucoma [2] = test: Prevention of recurrence in a patient successfully treated for glaucoma, one eye treated and the other left untreated; conditions: untreated eye shows signs of recurrence
Text: A composition comprising the ACE inhibitor enalapril is directly applied to the vitreous surface of one eye while the other eye is left untreated.
A composition comprising the angiotensin receptor blocker losartan is directly applied to the vitreous surface of one eye while the other eye is left untreated.
A composition comprising the ACE inhibitor enalapril is applied to the eye by intravitreal or intraocular injection while the other eye is left untreated.
A composition comprising the angiotensin receptor blocker losartan is applied to the eye by intravitreal or intraocular injection while the other eye is left untreated.

primary form of glaucoma = test: Ramiprilat formulation given to the eye of a patient with a primary form of glaucoma
Protocol: In this example, a patient with a primary form of glaucoma is administered a topical formulation comprising ramiprilat to the eye. […] The patient's primary form of glaucoma is therefore treated by the […] formulation.
In this example, a patient with a primary form of glaucoma is administered an injectable formulation comprising ramiprilat to the posterior chamber of the eye. […] The patient's primary form of glaucoma is therefore treated by the […] formulation.

[3] = composition applied by intravitreal or intraocular injection
[4] = composition directly applied to the vitreous surface of one eye
[5] = injectable formulation to the posterior chamber of the eye

Row | Compound | symptoms of glaucoma, treated eye versus untreated eye (glaucoma [1]; [3]) | symptoms of glaucoma, treated eye versus untreated eye (glaucoma [1]; [4]) | recurrence of glaucoma, treated eye versus untreated eye (glaucoma [2]; [3]) | recurrence of glaucoma, treated eye versus untreated eye (glaucoma [2]; [4]) | capillary networks and capillary blood supply to the eye (primary form of glaucoma; [5]) | intraocular pressure (primary form of glaucoma; [5]) | optic nerve (primary form of glaucoma; [5]) | capillary networks and capillary blood supply to the eye (primary form of glaucoma; topical formulation to the eye) | intraocular pressure (primary form of glaucoma; topical formulation to the eye) | optic nerve (primary form of glaucoma; topical formulation to the eye)
1 | CCCCc1nc(Cl)c(CO)n1Cc1ccc(-c2ccccc2-c2nn[nH]n2)cc1 [losartan] | reduced symptoms of glaucoma | reduced symptoms of glaucoma | not develop glaucoma | not develop glaucoma | – | – | – | – | – | –
2 | Ramiprilat | – | – | – | – | grows capillary networks and increases the capillary blood supply | reduction in intraocular pressure | repair to the optic nerve | grows capillary networks and increases the capillary blood supply | reduction in intraocular pressure | repair to the optic nerve
3 | CCOC(=O)[C@H](CCc1ccccc1)N[C@@H](C)C(=O)N1CCC[C@H]1C(=O)O [enalapril] | reduced symptoms of glaucoma | reduced symptoms of glaucoma | not develop glaucoma | not develop glaucoma | – | – | – | – | – | –
